Data: US8609358B2, “Methods, peptides and biosensors useful for detecting a broad spectrum of bacteria” (priority 2003, dated 2013)
Primed or numbered codes have the meaning given here. Dabcyl′ = FRET label; Edans = FRET label

What was measured:
[1] = test system: proteases of Staphylococcus; assay: Surface sensor sensitivity: cleavage of CPI2 by bacterial proteases; assay type: biochemical, Staphylococcus aureus
Experimental: (§1) CPI2 was determined to be a good candidate for a broad-spectrum sensor. Surface sensors were constructed as follows:
(§2) Membrane used: Pall SB6407
(§3) The sensors were air dried and stored overnight at −20° C. Sensors were loaded into sterile 96 well plates for the sensitivity study.
(§4) The bacteria E. faecalis, P. aeruginosa, S. aureus, S. pyogenes, and S. marcescens were grown in an incubator overnight at 37° C. in 5 ml BHI (Brain Heart Infusion) media and diluted to the concentrations given for each experiment. Each strain of bacteria was diluted with PBS (pH 7.4) to obtain an optical density (OD) of approximately 0.52 at 550 nm. This OD was assumed to represent approximately 10^8 cells/ml of bacteria. The 10^8 cells/ml stock of each bacteria was diluted with PBS to obtain a concentration series of: 10^7, 10^6, 10^5 and 10^4 cells/ml. Sensitivity testing consisted of placing 100 μL of each of the concentration series of 10^7, 10^6, 10^5 and 10^4 cells/ml (cells) onto a row of sensors. Controls for each sensitivity testing consisted of sensors exposed to 100 μL PBS.
(§5) Data was taken at 4, 24 and 48 hours for each plate. […] Images were analyzed using NIH ImageJ, a public domain image processing and analysis program developed at the National Institutes of Health (NIH). […]

[2] = test system: E. coli cells or supernatant; assay: Cleavage of CPI2 incubated with E. coli; assay type: biochemical, Escherichia coli
Experimental: (§6) A culture of each of the following bacterial species was grown overnight (O/N) in Brain Heart Infusion (BHI) broth at 37° C. with vigorous shaking (˜200 rpm), using methods that are standard in the art: Staphylococcus aureus; Streptococcus pyogenes; Serratia marcescens; Escherichia coli; Pseudomonas aeruginosa (PA14); Pseudomonas aeruginosa (GSU3); and Enterococcus faecalis. After overnight growth, a 1 ml sample of each culture was obtained, and the cells were removed from the culture supernatant by centrifugation at 12,000×g for 5 minutes. The remaining culture supernatants were stored on ice until required (less than one hour). The bacteria were assayed for the presence or absence of enzymes as described below.
The bacteria were grown in an incubator overnight at 37° C. in 5 mL BHI (Brain Heart Infusion) media. Each of the resulting cultures was split into two samples. One was used as a culture, and the other was spun down by centrifugation and the supernatant was collected. The assays were run in 20 mM tris buffer (pH 7.2) with 150 mM NaCl added […]. The cleavage reaction was carried out with 7 μL of culture or supernatant and 3 μL of peptide substrate (5 mg/mL in water/DMSO) in 100 μL total volume at 37° C. The reaction was followed on a fluorimetric plate reader using an excitation wavelength of 355 nm and an emission wavelength of 485 nm.

[3] = test system: proteases of Serratia; assay: Surface sensor sensitivity: cleavage of CPI2 by bacterial proteases; assay type: biochemical, Serratia marcescens; conditions: for sensor signal: end of sensor study (40 hours)
Experimental: as §1, §2, §3, §4
Data was taken at 4, 24 and 48 hours for each plate. Data consisted of color (fluorescent) images of each plate taken under relatively uniform conditions (lighting, exposure time, etc.) using a Kodak DC290 digital camera. Images were analyzed using NIH ImageJ, a public domain image processing and analysis program developed at the National Institutes of Health (NIH). Analysis consisted of measuring the intensity value within each well (i.e., the sum of the intensity values of all the pixels in the selection divided by the number of pixels). Pixels range in value from 0 to 1. […] All sensor sensitivity data is plotted on an index scale from 0 to 1 versus time and the trends accurately reflect what is seen in the images.

[4] = Cleavage of CPI2 in uninfected wound fluid; assay type: biochemical; conditions: in the presence of uninfected wound fluid
[5] = test system: proteases of Enterococcus; assay: Surface sensor sensitivity: cleavage of CPI2 by bacterial proteases; assay type: biochemical, Enterococcus faecalis
Experimental: as §1, §2, §3, §4, §5

[6] = test system: proteases of Streptococcus; assay: as above; assay type: biochemical, Streptococcus pyogenes
Experimental: as §1, §2, §3, §4, §5

[7] = test system: proteases of Pseudomonas; assay: as above; assay type: biochemical, Pseudomonas aeruginosa
Experimental: as §1, §2, §3, §4, §5

[8] = test system: bacterial culture (media and cells); assay: Broad spectrum FRET assay, overnight bacterial culture; assay type: biochemical; conditions: pH 7.2, 150 mM NaCl, 37° C.
Experimental: as §6
Two peptide substrates, CPI1 and CPI2, were designed to encompass all of the cleavage sites of the RSL sequence, as shown in FIGS. 1A and 1B. The peptide substrates were labeled with the fluorescent probe edans (5-((2-aminoethyl)amino)naphthalene-1-sulfonic acid) and the quencher dye molecule dabcyl ((4-(4-(dimethylamino)phenyl)azo)benzoic acid).
The bacteria were grown in an incubator overnight at 37° C. in 5 mL BHI (Brain Heart Infusion) media. Each of the resulting cultures was split into two samples. […] The reaction was followed on a fluorimetric plate reader using an excitation wavelength of 355 nm and an emission wavelength of 485 nm. […]

[9] = test system: five different clinical strains of E. faecalis; assay: Inter-strain operability; assay type: biochemical, Enterococcus faecalis; conditions: all five clinical strains
From the text: A CIP2 fluorescent resonance entergy transfer (FRET) peptide was exposed to five different clinical strains of E. faecalis (obtained from the University of Colorado). […] FIG. 12 illustrates a graph of the relative fluorescence measured after exposure to the various strains.

[10] = 10^5 bacteria/ml, end of sensor study (40 hours)

Edans-EGAMFLEAIPMSIPK-Dabcyl (Edans-EGAMFLEAIPMSIPK-{Dabcyl′}) [CPI2]
sensor signal [1, 10]: strong signal | cleavage of peptide substrate ([1]; proteases of Staphylococcus): efficiently cleaved | sensor signal ([2]; 10^5 bacteria/ml): not | cleavage of peptide substrate ([2]; incubated with E. coli cells or supernatant): not cleaved | sensor signal ([3]; 10^4 bacteria/ml): not observed to give a signal that can be significantly measured above the background | sensor signal ([3]; 10^5 bacteria/ml): strong signal | cleavage of peptide substrate ([3]; proteases of Serratia): efficiently cleaved | cleavage of peptide substrate [4]: not cleaved | sensor signal [5, 10]: strong signal | cleavage of peptide substrate ([5]; proteases of Enterococcus): efficiently cleaved | sensor signal [6, 10]: strong signal | cleavage of peptide substrate ([6]; proteases of Streptococcus): efficiently cleaved | sensor signal [7, 10]: strong signal | cleavage of peptide substrate ([7]; proteases of Pseudomonas): efficiently cleaved | protease activity (relative fluorescence) [8]: protease activity was observed for a number of the bacteria | reaction with strains (relative fluorescence) [9]: reacted strongly

Edans-EAAGAMFLEAIPK-Dabcyl (Edans-EAAGAMFLEAIPK-{Dabcyl′}) [CPI1]
protease activity (relative fluorescence) [8]: protease activity was observed for a number of the bacteria
